What was measured:
[1] = molecular target: human (hAC) acid ceramidase (Homo sapiens (Human), UniProt Q13510); assay: fluorescent-based in vitro assay on human acid ceramidase; type: biochemical; details: hAC-enriched lysosomal lysate from HEK293 cells; fluorogenic probe 5 μM; pH 4.5
From the text: To evaluate the potency of the compounds towards acid ceramidase, a fluorescence-based in vitro assay previously described in literature (Bedia C et al., ChemBioChem, 2007, 8, 642-648) was implemented and optimized. This assay is based on a “fluorogenic probe” containing a coumarin group and a sphingoid base moiety (see figure below), which is not fluorescent in itself, but upon enzymatic cleavage by acid ceramidase followed by a chemical transformation liberates the fluorescent molecule umbelliferone (7-hydroxychromen-2-one). By quantifying the generation of umbelliferone using a fluorescence plate-reader, the level of enzymatic activity can be measured, whereby IC50 values of compounds that inhibit this activity can be generated.
Lysosomal lysate, enriched with acid ceramidase, was prepared from a cell line stably expressing human acid ceramidase. In the assay, the fluorogenic probe (or substrate) serves as a ceramide-analogue, which is recognized and hydrolyzed at the amide bond by acid ceramidase from the enriched lysate to yield the fatty acid and coumarinic aminodiol. By treating the solution with sodium periodate (NaIO4), the coumarinic aminodiol is subsequently oxidized into an aldehyde intermediate, which undergoes a β-elimination reaction to release the strongly fluorescent umbelliferone.
A lysosomal human acid ceramidase protein preparation was obtained from HEK293 cells stably expressing acid ceramidase suspended in 20 mM Tris HCl (pH 7.5) with 0.32 M sucrose. The cell solution was sonicated and centrifuged at 800×g for 15 min at 4° C. Supernatants were then centrifuged at 12,000×g for 30 min at 4° C. Pellets were re-suspended in PBS pH 7.4 and subjected to two freeze-thaw cycles at −80° C. The suspension was finally centrifuged at 105,000×g for 1 hour at 4° C. and protein concentration was measured in the supernatant with bicinchinonic-acid based protein assay. This human acid ceramidase-enriched preparation allowed us to further optimize the enzymatic assay and to use smaller amounts of lysate (2 μg/well) and substrate (5 μM).
The assay was performed in Optiplate 96-wells black plates, with each reaction well containing a mixture of 25 mM sodium acetate buffer pH 4.5 and a fixed amount of protein (2 μg) in a volume of 85 μL. After 30 mins of pre-incubation with test compounds (diluted 20× from DMSO stock solutions at different concentrations), the fluorogenic probe was added (diluted 20× from EtOH stock solution, final concentration 5 μM). After incubation for 3 hours at 37° C., the reactions were stopped with 50 μL of methanol and 100 μL of a 2.5 mg/mL NalO4 fresh solution in 100 mM Glycine/NaOH pH 10.6. The plate was incubated at 37° C. for 2 hours in the dark and fluorescence intensities were measured at excitation/emission wavelengths of 360/446 nm. Negative control samples consisted of the same incubation mixture in the absence of protein extracts. The IC50 values or percent of inhibition, at the indicated concentration, of selected compounds described in the invention are reported in Table 2.

A375 cells = assay: ceramide levels in A375 human melanoma cells; type: cell-based; details: 25 μM
Protocol: Specifically, FIG. 1 evidences the effects of compound of Example 7 or vehicle (0.1% DMSO in DMEM) on AC activity and ceramide levels in A375 (left panel) or MeWo (right panel) human melanoma cell lines. (A-B) Intact cells were treated with compound of Example 7 (25 μM) or vehicle and AC activity was measured 30 minutes or 3 hours later in cell lysates. (B) Intact cells were exposed to compound of Example 7 (25 μM) for 2 hours or 24 hours and medium chain ceramides (C-D), long chain ceramides (E-F) and dihydroceramides (G-H) were quantified. Results are expressed as mean±s.e.m. (n=3). *p<0.05, **p<0.01, ***p<0.001 vs vehicle, two-way ANOVA followed by Dunnet.
Lipids were extracted from mouse tissue lysate with a chloroform/MeOH mixture (2:1 v/v, 3 mL) containing internal standards. The organic phase was collected, dried under nitrogen, and dissolved in chloroform/MeOH (1:3 v/v) for LC-MS analyses. Ceramides, sphingosine and sphinganine were analyzed by LC-MS/MS, using a Waters Acquity UPLC coupled with a Waters Xevo TQMS and interfaced with ESI. Separation was done on a Waters Acquity BEH C18 1.7 μm column (2.1×50 mm) at 60° C. A step gradient of 0.1% formic acid in acetonitrile/water (20:80 v/v) as solvent A and 0.1 formic acid in acetonitrile/isopropyl alcohol (20:80 v/v) as solvent B was applied at a flow rate of 0.4 mL/min. Detection was in the positive ionization mode. Capillary voltage was 3.5 kV and cone voltage was 25 V. The source temperature and desolvation temperatures were set at 120° C. and 600° C. respectively. […]
Tissue-derived ceramides were identified by comparison of their LC retention times and MS^2 fragmentation patterns with those of authentic standards (Avanti Polar Lipids). Extracted ion chromatograms were used to quantify myristoyl ceramide (C14:0, m/z 510.5>492.5>264.3), palmitoyl ceramide (C16:0, m/z 538.5>520.3>264.3), stearoyl ceramide (C18:0 m/z 566.5>548.3>264.3), lignoceroyl ceramide (C24:0 m/z 650.5>632.3>264.3), nervonoyl ceramide (C24:1 m/z 648.5>630.3>264.3) and using lauroyl ceramide standard (m/z 482.5>464.5>264.3). […]

sPLA2 (h) (type V) = sPLA2 (h) (type V) (Homo sapiens (Human), UniProt P39877); assay: Cerep enzyme inhibition screen: sPLA2; type: biochemical; details: mean of two determinations, read-out: Inhibitory activity (% Inh. at 10 μM), mean
Chain of sPLA2 (h) (type V) (P39877 21-138): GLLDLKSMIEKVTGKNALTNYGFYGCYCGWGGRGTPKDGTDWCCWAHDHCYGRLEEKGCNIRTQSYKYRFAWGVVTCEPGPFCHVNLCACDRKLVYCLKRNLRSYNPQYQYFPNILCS
From the text: (§1) Compound of Example 25 falling in both Formula (I) and (Ia) was selected to be tested for off-target effects on a set of enzymes that include proteases (aspartic, cysteine, and serine), cyclooxygenases as well as lipoxygenases and group IV phospholipase (sPLA2) (Table 3). [table]

PLC = assay: Cerep enzyme inhibition screen: PLC; type: biochemical; details: mean of two determinations
From the text: Compound of Example 25 falling in both Formula (I) and (Ia) was selected to be tested for off-target effects on a set of enzymes that include proteases (aspartic, cysteine, and serine), cyclooxygenases as well as lipoxygenases and group IV phospholipase (sPLA2) (Table 3).

COX2 (h) = COX2 (h) (Homo sapiens (Human), UniProt P35354); assay: Cerep enzyme inhibition screen: COX2; type: biochemical; details: mean of two determinations, read-out: Inhibitory activity (% Inh. at 10 μM), mean
Chain of COX2 (h) (P35354 18-604): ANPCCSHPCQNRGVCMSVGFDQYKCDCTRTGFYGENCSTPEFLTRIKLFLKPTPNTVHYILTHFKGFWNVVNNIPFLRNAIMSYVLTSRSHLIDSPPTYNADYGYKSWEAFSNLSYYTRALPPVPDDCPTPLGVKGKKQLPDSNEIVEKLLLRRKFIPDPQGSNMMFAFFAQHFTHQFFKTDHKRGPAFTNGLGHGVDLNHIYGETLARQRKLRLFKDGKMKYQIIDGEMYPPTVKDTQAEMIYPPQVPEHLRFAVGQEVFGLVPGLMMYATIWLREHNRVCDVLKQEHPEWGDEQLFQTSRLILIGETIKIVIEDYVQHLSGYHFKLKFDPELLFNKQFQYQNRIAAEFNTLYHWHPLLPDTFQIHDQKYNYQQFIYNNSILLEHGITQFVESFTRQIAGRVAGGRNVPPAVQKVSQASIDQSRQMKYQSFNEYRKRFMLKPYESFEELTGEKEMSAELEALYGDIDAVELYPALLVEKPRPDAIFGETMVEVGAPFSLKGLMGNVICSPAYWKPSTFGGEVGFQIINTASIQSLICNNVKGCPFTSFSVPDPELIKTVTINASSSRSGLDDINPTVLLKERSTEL
From the text: as §1

cathepsin B (h) = cathepsin B (h) (Homo sapiens (Human), UniProt P07858); assay: Cerep enzyme inhibition screen: cathepsin B; type: biochemical; details: mean of two determinations, read-out: Inhibitory activity (% Inh. at 10 μM), mean
From the text: as §1

[2] = system: proteases (aspartic, cysteine, and serine), cyclooxygenases, lipoxygenases and group IV phospholipase (sPLA2); assay: off-target test on a set of enzymes (overall statement); type: biochemical; details: 10 μM
From the text: as §1

Chain of human (hAC) acid ceramidase (Q13510 22-142): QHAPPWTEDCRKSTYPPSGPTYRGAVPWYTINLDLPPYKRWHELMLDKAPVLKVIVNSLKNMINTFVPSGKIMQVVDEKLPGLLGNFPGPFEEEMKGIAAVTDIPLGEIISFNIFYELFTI
Chain of human (hAC) acid ceramidase (Q13510 143-395): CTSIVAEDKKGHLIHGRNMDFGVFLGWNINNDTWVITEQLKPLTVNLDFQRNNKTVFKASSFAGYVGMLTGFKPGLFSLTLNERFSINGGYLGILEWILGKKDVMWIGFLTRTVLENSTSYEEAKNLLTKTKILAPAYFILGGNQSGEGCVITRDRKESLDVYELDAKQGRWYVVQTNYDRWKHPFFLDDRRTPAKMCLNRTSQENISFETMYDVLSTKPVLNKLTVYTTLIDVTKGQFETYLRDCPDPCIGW

Row | SMILES | IC50 [1] [nM] | duration of effects on ceramide levels (A375 cells; A375 cells (low AC expression)) | di-hydro ceramide species levels (A375 cells; A375 cells) | ceramide species levels (cer(d18:1/14:0), cer(d18:1/16:0), cer(d18:1/18:0), cer(d18:1/24:1)) (A375 cells; A375 cells, LC/MS) | inhibition at 10 µM (sPLA2 (h) (type V)) [%] | Inhibitory activity (% Inh. at 10 μM), mean (PLC) [%] | inhibition at 10 µM (COX2 (h)) [%] | inhibition at 10 µM (cathepsin B (h)) [%] | activity towards the off-target enzyme set [2]
1 | O=C(NCCCCc1ccccc1)n1c(=O)oc2cc(Br)ccc21 [Example 7, 6-Bromo-2-oxo-N-(4-phenylbutyl)-1,3-benzoxazole-3-carboxamide] | 33 ± 9 | lasted up to 24 hours | significant increase in all di-hydro ceramide species analyzed | intracellular accumulation of various ceramide species |  |  |  |  | 
2 | O=C(NCCCCc1ccccc1)n1c(=O)oc2cc(-c3ccc(F)cc3)ccc21 [Example 25, 6-(4-Fluorophenyl)-2-oxo-N-(4-phenylbutyl)-1,3-benzoxazole-3-carboxamide] |  |  |  |  | 1.1 | −19.7 | 6.7 | 9.9 | has not any significant activity

Reference: US10226452B2, “Benzoxazolone derivatives as acid ceramidase inhibitors, and their use as medicaments” (FONDAZIONE ISTITUTO ITALIANO DI TECNOLOGIA, priority 2014, dated 2019)
